Experimental data from patent publication US11161856B2 (H. Lundbeck A/S, priority 2017, dated 2021).

Key:
Assay type in all cases: biochemical
MAGL = target: T1, MAGL (Homo sapiens, UniProt Q99685); test: In vitro competitive activity-based protein profiling (FP-Rh or HT-01 probe, gel-based); settings: for % Inh MGLL PFC (Human, μM): prefrontal cortex (PFC) proteome; for % Inh MGLL PFC (Human, μM) / % Inh MGLL PC3 (Human, μM): concentration not given (μM); for % Inh MGLL PC3 (Human, μM) / IC50: PC3 cell proteome; for IC50: read-out: IC50 MGLL PC3 (Human)
T1 construct: Proteomes (human prefrontal cortex or cell membrane fractions); from tissue
T1 sequence (Q99685 1-303): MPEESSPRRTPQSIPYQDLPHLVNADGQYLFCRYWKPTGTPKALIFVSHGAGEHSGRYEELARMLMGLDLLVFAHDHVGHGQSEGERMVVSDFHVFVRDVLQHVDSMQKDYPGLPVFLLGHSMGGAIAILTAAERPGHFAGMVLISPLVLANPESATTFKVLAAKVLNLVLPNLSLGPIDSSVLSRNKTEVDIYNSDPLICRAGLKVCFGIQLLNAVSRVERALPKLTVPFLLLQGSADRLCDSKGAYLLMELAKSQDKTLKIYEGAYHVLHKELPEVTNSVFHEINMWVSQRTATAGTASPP
Outline: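 Human prefrontal cortex or cell membrane proteomes (1.0 mg/mL total protein) were preincubated with varying inhibitor concentrations for 30 min at 37° C. FP-Rh or HT-01 probe (50 μM DMSO stock) was then added for 30 min at room temperature, and samples were quenched in SDS loading buffer and resolved by SDS-PAGE.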

ABHD6 = target: T2, ABHD6 (Mus musculus, UniProt Q8R2Y0); test: In vitro competitive activity-based protein profiling, mouse brain proteome (ABHD6); settings: mouse brain proteome; concentration not given (μM)
T2 construct: Brain; from tissue; host or cells: mouse brain proteome
T2 sequence (Q8R2Y0 1-336): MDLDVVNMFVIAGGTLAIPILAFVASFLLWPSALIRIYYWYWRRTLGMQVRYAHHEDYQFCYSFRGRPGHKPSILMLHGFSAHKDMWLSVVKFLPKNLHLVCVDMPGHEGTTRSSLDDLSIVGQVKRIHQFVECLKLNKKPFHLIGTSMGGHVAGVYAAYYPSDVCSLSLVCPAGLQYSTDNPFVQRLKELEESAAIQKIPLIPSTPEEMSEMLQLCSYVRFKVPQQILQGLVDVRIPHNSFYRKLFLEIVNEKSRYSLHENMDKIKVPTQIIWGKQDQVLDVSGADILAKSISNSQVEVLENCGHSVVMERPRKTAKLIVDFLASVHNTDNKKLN
Protocol: [The source words this procedure for another target and reports this target under the same test.] In Vitro Competitive Activity-Based Protein Profiling.
Proteomes (human prefrontal cortex or cell membrane fractions) (50 μL, 1.0 mg/mL total protein concentration) were preincubated with varying concentrations of inhibitors at 37° C. After 30 min, FP-Rh or HT-01 (1.0 μL, 50 μM in DMSO) was added and the mixture was incubated for another 30 min at room temperature. Reactions were quenched with SDS loading buffer (15 μL-4×) and run on SDS-PAGE.

MGLL = target: T3, MGLL (Mus musculus, UniProt O35678); test: In vitro competitive activity-based protein profiling, mouse brain proteome (MGLL); settings: concentration not given (μM)
T3 construct: Brain; from tissue; host or cells: mouse brain proteome
T3 sequence (O35678 1-303): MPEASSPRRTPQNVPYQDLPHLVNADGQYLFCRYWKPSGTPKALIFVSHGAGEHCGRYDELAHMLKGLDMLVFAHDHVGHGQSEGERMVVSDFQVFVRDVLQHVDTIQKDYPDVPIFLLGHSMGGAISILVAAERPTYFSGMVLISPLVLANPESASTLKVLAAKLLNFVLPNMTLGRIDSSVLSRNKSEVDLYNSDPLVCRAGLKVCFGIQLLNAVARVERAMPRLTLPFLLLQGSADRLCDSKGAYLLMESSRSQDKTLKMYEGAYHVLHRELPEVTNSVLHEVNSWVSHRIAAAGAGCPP

| % Inh MGLL PFC (Human, μM) (MAGL) | % Inh ABHD6 Brain (Mouse, μM) (ABHD6) | % Inh MGLL Brain (Mouse, μM) (MGLL) | % Inh MGLL PC3 (Human, μM) (MAGL) | IC50 (MAGL) | SMILES |
| --- | --- | --- | --- | --- | --- |
| ### (### is ≥75%) | ## (## is between 25 and 75%) | ### (### is ≥75%) | – | – | CC1(C(=O)O)CCCN(c2cc(C(F)(F)F)ccc2CN2CC3(CCN(C(=O)OC(C(F)(F)F)C(F)(F)F)CC3)C2)C1 (stereo not drawn) [Example 112, l-(2-((7-(((1,1,1,3,3,3-Hexafluoropropan-2-yl)oxy)carbonyl)-2,7-diazaspiro[3.5]nonan-2-yl)methyl)-5-(trifluoromethyl)phenyl)-3-methylpiperidine-3-carboxylic acid] |
| ### (### is ≥75%) | # (# is ≤25%) | # (# is ≤25%) | – | – | O=C(O)C1CCCCN1c1cc(C(F)(F)F)ccc1CN1CC2(CCN(C(=O)OC(C(F)(F)F)C(F)(F)F)CC2)C1 (centres unmarked) [Example 23, 1-(2-((7-(((1,1,1,3,3,3-Hexafluoropropan-2-yl)oxy)carbonyl)-2,7-diazaspiro[3.5]nonan-2-yl)methyl)-5-(trifluoromethyl)phenyl)piperidine-2-carboxylic acid] |
| ### (### is ≥75%) | ### (### is ≥75%) | ### (### is ≥75%) | – | – | O=C(O)C1CCN(c2cc(CN3CC4(CCN(C(=O)OC(C(F)(F)F)C(F)(F)F)CC4)C3)cc(C(F)(F)F)c2)C1 (stereo not drawn) [Example 104, l-(3-((7-(((1,1,1,3,3,3-Hexailuoropropan-2-yl)oxy)carbonyl)-2,7-diazaspiro[3.5]nonan-2-yl)methyl)-5-(trifluoromethyl)phenyl) pyrrolidine-3-carboxylic acid] |
| ## (## is between 25 and 75%) | ### (### is ≥75%) | ### (### is ≥75%) | – | – | O=C(O)CN1CC2CC1CN2c1cc(CN2CC3(CCN(C(=O)OC(C(F)(F)F)C(F)(F)F)CC3)C2)cc(C(F)(F)F)c1 (centres unmarked) [Example 129, 2-(5-{3-[(7-{[(U,l,3,3,3-Hexafluoropropan-2-yl)oxy]carbonyl}-2,7-diazaspiro[3.5]nonan-2-yl)methyl]-5-(trifluoromethyl)phenyl}-2,5-diazabicyclo[2.2.1]heptan-2-yl)acetic acid] |
| ### (### is ≥75%) | ## (## is between 25 and 75%) | ### (### is ≥75%) | – | – | O=C(OC(C(F)(F)F)C(F)(F)F)N1CCC2(CCCN2Cc2cc(C(F)(F)F)cc(C3(C(=O)O)CCCC3)c2)CC1 [Example 8, 1-(3-((8-(((1,1,1,3,3,3-Hexafluoropropan-2-yl)oxy)carbonyl)-1,8-diazaspiro[4.5]decan-1-yl)methyl)-5-(trifluoromethyl)phenyl)cyclopentane-1-carboxylic acid] |
| ### (### is ≥75%) | # (# is ≤25%) | ### (### is ≥75%) | – | – | O=C(O)[C@@H]1CCCN(c2cc(C(F)(F)F)ccc2CN2CC3(CCN(C(=O)OC(C(F)(F)F)C(F)(F)F)CC3)C2)C1 [Example 107, (R)-1-(2-((7-(((1,1,1,3,3,3-Hexafluoropropan-2-yl)oxy)carbonyl)-2,7-diazaspiro[3,5]nonan-2-yl)methyl)-5-(trifluoromethyl)phenyl) piperidine-3-carboxylic acid] |
| ## (## is between 25 and 75%) | # (# is ≤25%) | # (# is ≤25%) | – | – | O=C(O)C1CCN(Cc2cc(CN3CCC4(CC3)CCN(C(=O)OC(C(F)(F)F)C(F)(F)F)C4)cc(C(F)(F)F)c2)CC1 [Example 223, l-(3-((2-(((1,1,1,3,3,3-Hexafluoropropan-2-yl)oxy)carbonyl)-2,8-diazaspiro[4.5]decan-8-yl)methyl)-5-(trifluoromethyl)benzyl) piperidine-4-carboxylic acid] |
| – | # (# is ≤25%) | ### (### is ≥75%) | ### (### is ≥75%) | < 100 nM | O=C(O)[C@H]1CCCN1C1CCN(c2cc(C(F)(F)F)ccc2CN2CCCC23CCN(C(=O)OC(C(F)(F)F)C(F)(F)F)CC3)CC1 [Example 160, (1-(2-((8-(((1,1,1,3,3,3-Hexafluoropropan-2-yl)oxy)carbonyl)-1,8-diazaspiro[4.5]decan-l-yl)methyl)-5-(trifluoromethyl)phenyl)piperidin-4-yl)-D-proline] |
| ### (### is ≥75%) | ### (### is ≥75%) | ### (### is ≥75%) | – | – | O=C(OC(C(F)(F)F)C(F)(F)F)N1CCC2(CCCN2C(=O)c2ccc(C(F)(F)F)cc2)CC1 [Example 83, 1,1,1,3,3,3-Hexafluoropropan-2-yl 1-(4-(trifluoromethyl)benzoyl)-1,8-diazaspiro[4.5]decane-8-carboxylate] |
| ### (### is ≥75%) | # (# is ≤25%) | ### (### is ≥75%) | – | – | CC1(C(=O)O)CCCN(c2cc(CN3CC4(CCN(C(=O)OC(C(F)(F)F)C(F)(F)F)CC4)C3)cc(C(F)(F)F)c2)C1 (stereo not drawn) [Example 114, l-(3-((7-(((1,1,1,3,3,3-Hexafluoropropan-2-yl)oxy)carbonyl)-2,7-diazaspiro[3,5]nonan-2-yl)methyl)-5-(trifluoromethyl)phenyl)-3-methylpiperidine-3-carboxylic acid] |
| – | # (# is ≤25%) | ### (### is ≥75%) | ### (### is ≥75%) | < 100 nM | CN(Cc1ccc(C(F)(F)F)cc1N1CCC(N2CCC[C@@H]2C(=O)O)CC1)C1(C)CCN(C(=O)OC(C(F)(F)F)C(F)(F)F)CC1 [Example 162, (1-(2-(((1-(((1,1,1,3,3,3-Hexafluoropropan-2-yl)oxy)carbonyl)-4-methylpiperidin-4-yl)(methyl)amino)methyl)-5-(trifluoromethyl)phenyl)piperidin-4-yl)-D-proline] |
| – | # (# is ≤25%) | ### (### is ≥75%) | ### (### is ≥75%) | – | CN(Cc1ccccc1C1(C(=O)O)CCCC1)C1(C)CCN(C(=O)OC(C(F)(F)F)C(F)(F)F)CC1 [Example 141, 1-(2-{[(1-{[(1,1,1,3,3,3-Hexafluoropropan-2-yl)oxy]carbonyl}-4-methylpiperidin-4-yl)(methyl)amino]methyl}phenyl)cyclopentane-1-carboxylic acid] |
| – | # (# is ≤25%) | ### (### is ≥75%) | ### (### is ≥75%) | – | CN(Cc1ccc(F)cc1C1(C(=O)O)CCCC1)C1(C)CCN(C(=O)OC(C(F)(F)F)C(F)(F)F)CC1 [Example 143, 1-(5-Fluoro-2-{[(1-{[(1,1,1,3,3,3-hexafluoropropan-2-yl)oxy]carbonyl}-4-methylpiperidin-4-yl)(methyl)amino]methyl}phenyl)cyclopentane-1-carboxylic acid] |
| ### (### is ≥75%) | ## (## is between 25 and 75%) | ### (### is ≥75%) | – | – | O=C(O)C1CCN(c2cc(CN3CCC4(CC3)CCN(C(=O)OC(C(F)(F)F)C(F)(F)F)C4)cc(S(F)(F)(F)(F)F)c2)CC1 [Example 226, 1-(3-((2-(((1,1,1,3,3,3-Hexafluoropropan-2-yl)oxy)carbonyl)-2,8-diazaspiro[4.5]decan-8-yl)methyl)-5-(pentafluoro-16-sulfancyl)phenyl)piperidine-4-carboxylic acid] |
